Experimental data taken from the supplement of paper PMC10307832.

Legend:
Assay in all cases: relative viability (nuclei count vs DMSO), 5 days (fraction); higher = more cells survive
[1] = compound: COC1=CC=C(C=C1)COC2=C(C=C(C=C2)CC3=CN=C(N=C3N)N)OC [GW-2580] + CC(=O)c1c(C)c2cnc(Nc3ccc(N4CCNCC4)cn3)nc2n(C2CCCC2)c1=O [Palbociclib] (partner 0.5 µM)
Method in brief: (§1)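 Lung cancer cell lines, seeded in 1536-well plates, were treated the following day by pin tool with a single drug or with five library-drug doses (not always all listed) in √10 steps on top of a fixed anchor-drug dose. Cells were fixed and nuclei stained in one step after 5 days, and nuclei were counted. Relative viability is the nuclei count for treated wells divided by that for vehicle wells, reported as medians of duplicate plates.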

[2] = compound: COC1=CC=C(C=C1)COC2=C(C=C(C=C2)CC3=CN=C(N=C3N)N)OC [GW-2580] + C[C@@H](Oc1cc(-c2cnn(C3CCNCC3)c2)cnc1N)c1c(Cl)ccc(F)c1Cl [Crizotinib] (partner 1 µM)
Method in brief: as §1

[3] = compound: Cc1cnc(Nc2ccc(OCCN3CCCC3)cc2)nc1Nc1cccc(S(=O)(=O)NC(C)(C)C)c1 [Fedratinib] + CC(=O)Nc1cccc(-n2c(=O)n(C3CC3)c(=O)c3c(Nc4ccc(I)cc4F)n(C)c(=O)c(C)c32)c1 [Trametinib] (partner 0.02 µM)
Method in brief: as §1

[4] = compound: Cc1cnc(Nc2ccc(OCCN3CCCC3)cc2)nc1Nc1cccc(S(=O)(=O)NC(C)(C)C)c1 [Fedratinib] + Cc1cc(Nc2cc(N3CCN(C)CC3)nc(Sc3ccc(NC(=O)C4CC4)cc3)n2)n[nH]1 [Tozasertib] (partner 0.1 µM)
Method in brief: as §1

[5] = compound: Cc1cnc(Nc2ccc(OCCN3CCCC3)cc2)nc1Nc1cccc(S(=O)(=O)NC(C)(C)C)c1 [Fedratinib] + Nc1nc2[nH]cc(CCc3ccc(C(=O)N[C@@H](CCC(=O)O)C(=O)O)cc3)c2c(=O)[nH]1 [Pemetrexed] (partner 0.2 µM)
Method in brief: as §1

[6] = compound: Cc1cnc(Nc2ccc(OCCN3CCCC3)cc2)nc1Nc1cccc(S(=O)(=O)NC(C)(C)C)c1 [Fedratinib] + Nc1ncn([C@H]2C[C@H](O)[C@@H](CO)O2)c(=O)n1 [Decitabine] (partner 2 µM)
Method in brief: as §1

## UMC-11
[1]; first compound 0.08 µM
  relative viability: 0.329
[1]; first compound 0.8 µM
  relative viability: 0.352
[1]; first compound 8 µM
  relative viability: 0.348
[2]; first compound 0.08 µM
  relative viability: 0.599
[2]; first compound 0.8 µM
  relative viability: 0.614
[2]; first compound 2.53 µM
  relative viability: 0.585
[2]; first compound 8 µM
  relative viability: 0.601
[3]; first compound 0.1 µM
  relative viability: 0.625
[3]; first compound 0.3162 µM
  relative viability: 0.476
[3]; first compound 1 µM
  relative viability: 0.52
[4]; first compound 0.1 µM
  relative viability: 0.229
[4]; first compound 0.3162 µM
  relative viability: 0.228
[4]; first compound 1 µM
  relative viability: 0.193
[5]; first compound 0.1 µM
  relative viability: 0.756
[5]; first compound 0.3162 µM
  relative viability: 0.66
[5]; first compound 1 µM
  relative viability: 0.665
[6]; first compound 0.1 µM
  relative viability: 0.61
[6]; first compound 0.3162 µM
  relative viability: 0.603
[6]; first compound 1 µM
  relative viability: 0.551
